Structures can show the parent of a compound that is named as a salt. Where two headings read alike, the source gives them in different places.
Legend:
[1] = tested on: SARS-CoV-2 (USA_WA1/2020); assay: microbe, parasite or virus in culture; type: cell-based; conditions: for EC50: read-out: CPE EC50
[2] = in vitro; conditions: African green monkey
[3] = human; Single dose 1.34 mg PO; ref Schran et al. (1996); cited from earlier work
[4] = Severe acute respiratory syndrome coronavirus 2, Vero C1008, SARS-CoV-2 CPE assay, Vero E6 cells, confirmed anti-SARS-CoV-2 compounds
[5] = Severe acute respiratory syndrome coronavirus 2, Vero C1008, SARS-CoV-2 CPE assay, Vero E6 cells, efficacy, read-out: CPE % Efficacy
[6] = Severe acute respiratory syndrome coronavirus 2, Vero C1008, 72 h
[7] = Severe acute respiratory syndrome coronavirus 2, Vero C1008, […], DMSO 0%, no-virus control 100%, hit confirmation, read-out: CPE % efficacy

Compound | EC50 [1, 4] | Emax [1, 5] | cytotoxicity at 72 h [2] | CC50 [2] | cytotoxicity [2] | further results
CC[C@H](CC#N)OC(=O)N[C@@H](C)c1cccc(NC(=O)Nc2ccc(-c3cnco3)c(OC)c2)c1 [AVN944] | 11.2 µM | 95.3% | 50.3% |  |  | CC50 at 72 h [2]: 3.98 µM
Oc1c(Cl)cc(Cl)c2cccnc12 [Chloroxine] | 11.2 µM | 64.9% |  | 7.08 µM | 61.5% | 
CN1CCCN(C(c2ccccc2)c2ccc(Cl)cc2)CC1 (stereo not drawn) [Homochlorcyclizine] | 10 µM | 84.3% |  | 12.6 µM | 34.2% | 
CN(C)[C@@H](CCOc1cccc2ccccc12)c1ccccc1 [Dapoxetine] | 10 µM | 82.6% | 32% |  |  | 
COc1cc2nc(N3CCN(C(=O)C4COc5ccccc5O4)CC3)nc(N)c2cc1OC (stereo not drawn) [Doxazosin mesylate] |  |  |  |  | 0% | Emax ([1]; Severe acute respiratory syndrome coronavirus 2, Vero C1008, SARS-CoV-2 CPE assay, Vero E6 cells, read-out: CPE % Efficacy): 86.6%; EC50 ([1]; Severe acute respiratory syndrome coronavirus 2, Vero C1008, SARS-CoV-2 CPE assay, Vero E6 cells): 14.1 µM
CCCCCCCCn1cc(CC(N)=O)c2cc(-c3cccc(C)c3)ccc21 [Cysmethynil] | 11.2 µM | 89.1% | 106% |  |  | 
CN1CCC[C@@H]1CCO[C@](C)(c1ccccc1)c1ccc(Cl)cc1 [Clemastine fumarate, reference compound] |  |  |  |  | < 30% | Elimination T1/2 [3]: 21.3 ± 11.6 h
CC(C)(O)CNc1ncc(-c2ccnc(Nc3ccnc(Cl)c3)n2)c(CC2CC2)n1 [VPS34-IN1, reference compound] |  |  |  | 10 µM |  | Shape of concentration-response in the CPE assay ([1]; Figure 3): bell-shaped concentration-responses due to cytotoxicity; EC50 [1, 6]: 0.63 µM; Emax [1, 7]: 103%
COC(=O)[C@@]12OC[C@]34[C@H]([C@@H](O)[C@@H]1O)[C@@]1(C)CC(=O)C(O)=C(C)[C@@H]1C[C@H]3OC(=O)[C@H](OC(=O)/C=C(\C)C(C)C)[C@@H]24 [Bruceantin] | 0.0319 µM | 42.5% |  | 0.14 µM | 83.3% | 
Cc1ccc(NC(=O)Nc2cc(C(F)(F)F)ccc2F)cc1Nc1ccc2c(c1)NC(=O)/C2=C\c1ccc[nH]1 [GNF-5837] | 3.16 µM | 84% |  | 8.91 µM | 61.4% | 
CC(C(O)c1ccccc1)N(C)CCOC(c1ccccc1)c1ccccc1 (stereo not drawn) [Difeterol, reference compound] |  |  | < 30% |  |  | EC50 [1, 6]: 10 µM; Emax [1, 7]: 113%
Cc1cn(CCN2CCN(c3ccccc3-c3cc(C#N)cc(C(=O)NCCCN4CCCC4)c3)CC2)c2ccccc12 [LLY-507] | 3.16 µM | 59.6% | 108% |  |  | CC50 at 72 h [2]: 12.6 µM
Cc1nc(Nc2ccc(F)cc2)nc(N2CCc3ccccc3C2C)c1C (stereo not drawn) [Revaprazan HCl] | 5.01 µM | 60.4% | 49.9% |  |  | 
CCN(CC)CCOc1ccc2c(c1)C(=O)c1cc(OCCN(CC)CC)ccc1-2 [TILORONE] | 3.98 µM | 74.3% | 97.2% |  |  | CC50 at 72 h [2]: 11.2 µM
CCN(CC)CCN(Cc1ccc(-c2ccc(C(F)(F)F)cc2)cc1)C(=O)Cn1c(SCc2ccc(F)cc2)nc(=O)c2c1CCC2 [Darapladib] | 2.82 µM | 75.1% |  | 11.2 µM | 102% | 
CCCN(CCC)C(=O)C(CCC(=O)OCCCN1CCN(CCOC(=O)Cc2c(C)n(C(=O)c3ccc(Cl)cc3)c3ccc(OC)cc23)CC1)NC(=O)c1ccccc1 (stereo not drawn) [Proglumetacin, reference compound] |  |  | < 30% |  |  | EC50 [1, 6]: 10 µM; Emax [1, 7]: 87.6%
c1ccc(-c2ccc(C(c3ccccc3)n3ccnc3)cc2)cc1 (stereo not drawn) [Bifonazole] | 10 µM | 36.4% |  |  | 24.5% | 
CNCCCN1c2ccccc2CCc2ccccc21 [Desipramine hydrochloride] | 11.2 µM | 43.7% |  | 5.01 µM | 9.2% | 

— publication PMC7942396, “Drug Repurposing Screen for Compounds Inhibiting the Cytopathic Effect of SARS-CoV-2” (Frontiers in Pharmacology, 2021)
